Where a name gives a salt, the structure may show the parent alone.
What was measured:
[1] = Hematology and blood chemistry in treated chimpanzees; type: in vivo
Method: Hematology and blood chemistry report. The day 0 and day 14 samples were analyzed for hematological and blood chemistry parameters. Essentially, no changes in the baseline and after treatment samples were observed.

[2] = Oral and IV administration to rhesus monkeys; type: in vivo; details: 20 mg/kg
[3] = Toxicity in Swiss outbred mice, IP for 6 consecutive days; type: in vivo; details: up to 100 mg/kg
human cell lines = test: Toxicity in several human cell lines; type: cell-based
HCV replicon = HCV replicon system in Huh7 cells (real-time RT-PCR of replicon RNA); type: cell-based; details: for ΔCt HCV at 100 μM / EC50: Huh7 replicon cells; for ΔCt HCV at 100 μM: ΔCt of 3.3 = 1-log reduction in replicon production; for EC50: calculated from ΔCt values of dilution series
Method: The HCV replicon system in Huh7 cells.
Huh7 cells harboring the HCV replicon were cultivated in DMEM medium (high glucose, no pyruvate), supplemented with 10% fetal bovine serum, 1× non-essential amino acids, Pen-Strep-Glu (100 units/liter, 100 microgram/liter, and 2.92 mg/liter, respectively), and G418 (500 to 1000 microgram/milliliter). Antiviral screening assays were also done in the same medium without G418 as follows. To keep the cells in the logarithmic growth phase, cells were seeded in 96-well plates at low density (for example, 1000 cells per well). The test compound was then added immediately after seeding the cells, and they were incubated for 3 to 7 days at 37° C. in an incubator. The medium was then removed, and the cells were prepared for total RNA extraction (replicon RNA+host RNA). Replicon RNA was then amplified in a real-time RT-PCR (Q-RT-PCR) protocol, and quantified.
In such experiments, a way to express the antiviral effectiveness of a compound is to subtract the average threshold RT-PCR cycle of the negative control (Ctnegative) from the threshold RT-PCR cycle of the test compound (Cttestcompound). This value is called ΔCt (ΔCt=Cttestcompound−Ctnegative). A ΔCt value of 3.3 represents a 1-log reduction in replicon production.
The ΔCt values for each concentration allow the calculation of the 50% effective concentration (EC50).
Compounds were tested for inhibition of HCV RNA replication using the above assay.

HCV [4] = test: 14-day oral treatment of chronically HCV-infected chimpanzees, serum HCV viral load by real-time RT-PCR; type: in vivo
Method: Based on those toxicity data, a 14-day treatment (oral, QD at 5 mg/kg/day) of chronically HCV-infected chimpanzees was conducted. Viral RNA was extracted from the chronically infected chimpanzees serum samples in quadruplicate and the viral RNA pellets were dissolved in RNAse-free water. Subsequently, these RNA samples were amplified by real-time RT-PCR (Applied Biosystems, Foster City, Calif.) for the presence and quantity of the HCV nucleic acids. Primers and probes for HCV were designed using Primer Express (Applied Biosystems). Further details on the methodology will be published (Stuyver et al., 2002; manuscript submitted to Antimicrob. Agents Chemother.).
The results are expressed relative to the viral load in the pretreatment sample. Calculation of the viral load for each sample was based on 4 independent measurements of threshold RT-PCR cycles (Ct values). Mean±SD were calculated for each day's sample. The latter were used to express the observed viral load changes.
Two chimpanzees [Joseph (5.14 log10 IU/ml HCV) and Heppie (5.69 log10 IU/ml HCV)] were treated orally for 14 days with 5 mg/kg/day. The viral load changes that were observed are summarized below (FIG. 1): • 1. […] The viral load remained suppressed with a mean of 0.43 log10 IU/ml up to day 14.

HCV [5] = details: ribavirin alone; cited from earlier work

Structure (SMILES) | ΔCt HCV at 100 μM (HCV replicon) | EC50 (HCV replicon; Hepatitis C virus, Huh-7) [µM] | other results
O=c1ccc2nnn3c2n1[C@@H]1O[C@H](C3)C(O)C1O (stereo partly drawn) [15 (Y = H, Z = CH), 9,5′-Cyclo-3-(β-D-ribofuranosyl)-1-deaza-8-azapurine-2-one] | 4.48 | 20 | changes in hematological and blood chemistry parameters ([1]; day 0 versus day 14; oral 5 mg/kg/day; Z=CH), 5 mg/kg/day): No change; hematological and blood chemistry parameters relative to normal range ([1]; throughout the study): remained in the normal range; untoward effects ([2]; IV administration): Neither oral administration nor IV administration to rhesus monkeys at 20 mg/kg caused any untoward effects; untoward effects ([2]; oral administration): Neither oral administration nor IV administration to rhesus monkeys at 20 mg/kg caused any untoward effects; toxicity [3]: no toxicity was apparent; death or significant weight loss ([3]; 28 day monitoring): None of the mice died or lost significant weight; toxicity in several human cell lines (human cell lines): practically no toxicity; in vitro antiviral activity against HCV (HCV replicon; in words): demonstrated in vitro antiviral activity against HCV; reduction in viral load (HCV [4]; day 4, 5 mg/kg/day QD, in words): significant reduction; maximal drop in HCV viral load (HCV [4]; day 4, chimpanzee Heppie, oral 5 mg/kg/day QD): 0.8 log10 IU/ml; maximal drop in HCV viral load (HCV [4]; day 4, chimpanzee Joseph, oral 5 mg/kg/day QD): 0.5 log10 IU/ml; maximal drop in HCV viral load, mean for both animals (HCV [4]; day 4, mean of both chimpanzees, oral 5 mg/kg/day QD): 0.67 log10 IU/ml; viral load changes (HCV [4]; up to 24 hr after administration of the first dose, oral 5 mg/kg/day): No viral load changes were observed; viral load suppression, mean (HCV [4]; up to day 14, oral 5 mg/kg/day QD): 0.43 log10 IU/ml
O=c1ncc2nnn3c2n1[C@@H]1O[C@H](C3)C(O)C1O (stereo partly shown) [15 (Y = H, Z = N)] | 3.6 | < 10 | –
O=c1[nH]c(=O)n2c3c1nnn3CC1OC2C(O)C1O [15 (Y = OH, Z = N), 9,5′Cyclo-3-(β-D-ribofuranosyl)-8-azaxanthine] | 6.3 | – | EC50 (HCV replicon): < 10 µM
O=c1[nH]c(=S)c2nnn3c2n1[C@@H]1O[C@H](C3)C(O)C1O (stereo partly shown) [15 (Y = SH, Z = N)] | 3.61 | < 6 | –
O=c1c(Br)cc2nnn3c2n1[C@@H]1O[C@H](C3)C(O)C1O (stereo partly drawn) [71 (X = Br), 3,5′-Cyclo-6-bromo-4-(β-D-ribofuranosyl)-vic-triazolo[4,5-b]pyridin-5-one] | 5.9 | < 1 | –
O=c1c(Cl)cc2nnn3c2n1[C@@H]1O[C@H](C3)C(O)C1O (stereo partly drawn) [71 (X = Cl), 3,5% Cyclo-6-chloro-4-(β-D-ribofuranosyl)-vic-triazolo[4,5-b]pyridin-5-one] | 6.0 | < 0.7 | –
CNc1nc(=O)n2c3c1nnn3C[C@H]1O[C@@H]2C(O)C1O (stereo partly drawn) [72 (R = H, R′ = Me), 3,5′-Cyclo-7-methylamino-4-(β-D-ribofuranosyl)-vic-triazolo[4,5-b]pyridin-5-one] | 6.6 | < 1 | –
Nc1cc(=O)n2c3c1nnn3C[C@H]1O[C@@H]2C(O)C1O (stereo partly drawn) [72 (R = R′ = H), 7-Amino-3,5′-cyclo-4-(β-D-ribofuranosyl)-vic-triazolo[4,5-b]pyridin-5-one] | 5.7 | 4.5 | –
CC1(C)OC2C(O1)[C@H]1Cn3nnc4c(=S)[nH]c(=O)n(c43)[C@@H]2O1 (stereo partly shown) [73 (Y = SH)] | 4.1 | 25 | –
C/N=c1/[nH]c(=O)n2c3c1nnn3C[C@H]1O[C@@H]2C(O)C1O (stereo partly drawn) [75 (R = Me, R′ = H), 9,5′-Cyclo-3-(β-D-ribofuranosyl)-6-methylamino-8-azaxanthine] | 6.4 | < 6 | –
CO/N=c1/[nH]c(=O)n2c3c1nnn3C[C@H]1O[C@@H]2C(O)C1O (stereo partly drawn) [75 (R = OMe, R′ = H), 9,5′-Cyclo-3-(β-D-ribofuranosyl)-6-methoxylamino-8-azaxanthine] | 6.5 | < 5 | –
Nc1nc(=O)n2c3c1nnn3C[C@H]1O[C@@H]2C(O)C1O (stereo partly drawn) [75 (R = R′ = H), 9,5′-Cyclo-3-(β-D-ribofuranosyl)-6-amino-8-azapurine-2-one hydrochloride] | 5.3 | 0.7 | –
CN(C)c1nc(=O)n2c3c1nnn3C[C@H]1O[C@@H]2C(O)C1O (stereo partly drawn) [75 (R = R′ = Me), 9,5′-Cyclo-3-(β-D-ribofuranosyl)-6-dimethylamino-8-azaxanthine] | 2.4 | – | –
N#CCn1c(=O)c2nnn3c2n(c1=O)[C@@H]1O[C@H](C3)C(O)C1O (stereo partly drawn) [77 (R = CH2CN), 1-Cyanomethyl-9,5′-cyclo-3-(β-D-ribofuranosyl)-8-azaxanthine] | 4.7 | < 6 | –
Cn1c(=O)c2nnn3c2n(c1=O)[C@@H]1O[C@H](C3)C(O)C1O (stereo partly drawn) [77 (R = CH3), 9,5′-Cyclo-1-methyl-3-(β-D-ribofuranosyl)-8-azaxanthine] | 5.9 | 0.4 | –
O=c1ccc2nnn3c2n1[C@@H]1O[C@H](C3)C2OC(=S)OC21 (stereo partly shown) [82 (Y = H, Z = CH)] | 2.6 | – | –
O=c1[nH]c(=O)n2c3c1nnn3C[C@H]1O[C@@H]2C2OC(=S)OC21 (stereo partly drawn) [82 (Y = OH, Z = N), 9,5′-Cyclo-3-(2′,3′O-thiocarbonyl-β-D-ribofuranosyl)-8-azaxanthine] | 4.7 | 12 | –
O=c1ccc2nnn3c2n1[C@H]1CC(O)[C@@H](C3)O1 (stereo partly shown) [83 (Y = H, Z = CH)] | 5.1 | < 6 | –
O=c1[nH]c(=O)n2c3c1nnn3C[C@H]1O[C@@H]2C(O)C1O (stereo partly drawn) [83 (Y = OH, Z = N), 9,5% Cyclo-3-(2′-deoxy-β-D-erythropentofuranosyl)-8-azaxanthine] | 2.1 | 60 | –
Cl.Nc1nc(=O)n2c3c1ncn3C[C@H]1O[C@@H]2C(O)C1O (stereo partly drawn) [Compound 27, 6-Amino-5′,9-cyclo-3-(β-D-ribofuranosyl)-2-oxo-purine HCl salt] | 6.6 | < 3 | –
O=c1[nH]c(=O)n2c3c1ncn3C[C@H]1O[C@@H]2C(O)C1O (stereo partly drawn) [Compound 35, 5′,9-Cyclo-3-(β-D-ribofuranosyl)xanthine] | 6.0 | 4 | –
O=c1[nH]c(=O)n2c3c1nnn3C[C@H]1O[C@@H]2C(O)C1O (stereo partly shown) [Compound 65, 9,5′-Cyclo-carba-8-azaxanthosine] | 2.4 | – | –
OC1C(O)[C@H]2Cn3nnc4ccc(=S)n(c43)[C@@H]1O2 (stereo partly drawn) [Compound 70, 3,5% Cyclo-4-(β-D-ribofuranosyl)-vic-triazolo[4,5-b]pyridin-5-thione] | 7.0 | 1 | –
NC(=O)c1ncn([C@@H]2O[C@H](CO)[C@@H](O)[C@H]2O)n1 [Ribavirin, 1-β-D-ribofuranosyl-1H-1,2,4-triazole-3-carboxamide] | – | – | patients in whom serum amino transferase levels are reduced to normal (HCV [5]): 40%

— patent publication US8093380B2, “Compounds with the bicyclo[4.2.1]nonane system for the treatment of Flaviviridae infections” (Pharmasset, Inc., priority 2002, dated 2012)
